According to patent US20230066011A1, “PYRROLOPYRIMIDINE DERIVATIVE, AND PHARMACEUTICAL COMPOSITION FOR PREVENTING OR TREATING PROTEIN KINASE-RELATED DISEASE COMPRISING SAME AS ACTIVE INGREDIENT” (VORONOI CO., LTD., priority 2019, published 2023):
pIC50: −log10 of the molar value.

Key:
human GST-DYRK1A = target: T1, human GST-DYRK1A (Homo sapiens, UniProt Q13627); assay: GST-DYRK1A enzyme inhibition, ADP-Glo kinase assay; format: biochemical; conditions: ATP 10 μM, GST-DYRK1A full length, read-out: DYRK1 IC50
T1 construct: purified human GST-DYRK1A (full length, Thermo Scientifics) enzyme; purchased Thermo Scientifics
Description: (§1) To evaluate an inhibitory activity of the compound according to the present invention against LRRK2, LRRK2 (G2019S), DYRK1, CLK1, and TTK kinases, experiments were performed as follows.
(§2) Each of the Example compounds was reacted with a purified human GST-DYRK1A (full length, Thermo Scientifics) enzyme to evaluate an ability to inhibit an enzyme using a method as described below. A composition of 40 mM Tris-HCl (pH 7.4), 20 mM MgCl2, 0.5 mg/mL BSA, and 50 μM DTT was used as a reaction buffer, and all reactions of test substances were performed in the reaction buffer. In the test, purified ATP (10 μM) and a specific substrate solution were reacted with a human GST-DYRK1A (full length, 10 ng) enzyme at 25° C. for an hour, and the enzyme activities were then determined using an in vitro ADP-Glo™ kinase assay (Promega). An enzyme-activity reaction solution, an ADP-Glo reaction solution, and an enzyme-ability detection solution were reacted at a ratio of 2:2:1 to measure a degree of inhibition of the enzyme activity with luminescence. The degree of inhibition of the enzyme activity according to the treatment concentration of each of the compounds was calculated based on the fluorescence of the enzyme activity of the solvent control which was not treated with the compound. In this case, the concentration of each of the compounds inhibiting 50% of the enzyme activity was determined to be an IC50 (nM) value, and the IC50 (nM) value of each of the compounds was determined from 3 sets of data, and calculated using Prism (Version 5.01; GraphPad) software.

human GST-CLK1 = target: T2, human GST-CLK1 (Homo sapiens, UniProt P49759); assay: GST-CLK1 enzyme inhibition, ADP-Glo kinase assay; format: biochemical; conditions: ATP 10 μM, GST-CLK1 129-end
T2 construct: purified human GST-CLK1 (129-end, SignalChem) enzyme; purchased SignalChem
Description: as §1
as §2, with “GST-CLK1 (129-end, SignalChem)” for “GST-DYRK1A (full length, Thermo Scientifics)”, “GST-CLK1 (129-end, 3” for “GST-DYRK1A (full length, 10”, “value. The” for “value, and the”

T2 sequence (P49759 129-484 limits assumed): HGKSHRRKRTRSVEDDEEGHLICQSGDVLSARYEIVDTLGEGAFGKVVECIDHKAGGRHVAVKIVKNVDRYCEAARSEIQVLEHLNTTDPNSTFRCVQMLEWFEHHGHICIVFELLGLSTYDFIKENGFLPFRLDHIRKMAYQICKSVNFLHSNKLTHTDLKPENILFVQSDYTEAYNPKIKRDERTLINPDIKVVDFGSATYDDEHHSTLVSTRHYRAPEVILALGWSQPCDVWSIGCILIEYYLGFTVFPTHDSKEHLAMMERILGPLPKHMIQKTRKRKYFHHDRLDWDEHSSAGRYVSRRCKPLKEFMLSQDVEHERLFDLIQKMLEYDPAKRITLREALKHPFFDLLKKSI

| pIC50 (human GST-DYRK1A) | pIC50 (human GST-CLK1) | SMILES |
| --- | --- | --- |
| 6.52 to 7.00 | > 7.00 | CNc1nc(Nc2ccc(C(=O)N3CCN(C4COC4)CC3)c3c2OCCO3)nc2[nH]cc(C#N)c12 [Example 280, 4-(methylamino)-2-((8-(4-(oxetan-3-yl)piperazine-1-carbonyl)-2,3-dihydrobenzo[b][1,4]dioxin-5-yl)amino)-7H-pyrrolo[2,3-d]pyrimidine-5-carbonitrile] |
| 6.00 to 6.52 | > 7.00 | COCCNc1nc(Nc2ccc(P(C)(C)=O)cc2OC)nc2[nH]cc(C#N)c12 [Example 115, 2-((4-(dimethylphosphoryl)-2-methoxyphenyl)amino)-4-((2-methoxyethyl)amino)-7H-pyrrolo[2,3-d]pyrimidine-5-carbonitrile] |
| 6.52 to 7.00 | 6.00 to 6.52 | COc1cc(P(C)(C)=O)ccc1Nc1nc(NC2CCCCC2)c2c(C(F)(F)F)c[nH]c2n1 [Example 196, (4-((4-(cyclohexylamino)-5-(trifluoromethyl)-7H-pyrrolo[2,3-d]pyrimidin-2-yl)amino)-3-methoxyphenyl)dimethylphosphine oxide] |
| 6.00 to 6.52 | > 7.00 | CC(C)CNc1nc(Nc2ccc(C(=O)N3CCC(N4CCOCC4)CC3)c3c2OCCO3)nc2[nH]cc(C(F)(F)F)c12 [Example 199, (8-((4-(isobutylamino)-5-(trifluoromethyl)-7H-pyrrolo[2,3-d]pyrimidin-2-yl)amino)-2,3-dihydrobenzo[b][1,4]dioxin-5-yl)(4-morpholinopiperidin-1-yl)methanone] |
| 6.00 to 6.52 | 6.00 to 6.52 | COc1cc(P(C)(C)=O)ccc1Nc1nc(NC2CCC2)c2c(C(F)(F)F)c[nH]c2n1 [Example 386, (4-((4-(cyclo-butylamino)-5-(trifluoromethyl)-7H-pyrrolo[2,3-d]pyrimidin-2-yl)amino)-3-methoxyphenyl) dimethyl phosphine oxide] |
| 6.52 to 7.00 | > 7.00 | COc1cc(P2(=O)CCN(C3COC3)CC2)ccc1Nc1nc(NCC2CC2)c2c(C#N)c[nH]c2n1 [Example 305, 4-((cyclo-propylmeth-yl)amino)-2-((2-methoxy-4-(1-(oxetan-3-yl)-4-oxido-1,4-azaphosphinan-4-yl)phenyl)amino)-7H-pyrrolo[2,3-d]pyrimidine-5-carbonitrile] |
| 6.00 to 6.52 | > 7.00 | N#Cc1c[nH]c2nc(Nc3ccc(C(=O)N4CC(CO)(CO)C4)c4c3OCCO4)nc(N[C@H]3CCOC3)c12 [Example 336, (S)-2-((8-(3,3-bis (hydroxymethyl)azetidine-1-carbonyl)-2,3-dihydrobenzo[b] [1,4]dioxin-5-yl)amino)-4-((tetrahydrofuran-3-yl)amino)-7H-pyrrolo[2,3-d]pyrimidine-5-carbonitrile] |
| 6.00 to 6.52 | 6.00 to 6.52 | CC[C@H](C)Nc1nc(Nc2ccc(S(C)(=O)=O)cc2OC)nc2[nH]cc(C#N)c12 [Example 102, (S)-4-(sec-butylamino)-2-((2-methoxy-4-(methylsulfonyl)phenyl)amino)-7H-pyrrolo[2,3-d]pyrimidine-5-carbonitrile] |
| 6.00 to 6.52 | 6.52 to 7.00 | CCCNc1nc(Nc2ccc(P3(=O)CCN(C4CC4)CC3)cc2OC)nc2[nH]cc(C#N)c12 [Example 282, 2-((4-(1-cyclopropyl-4-oxido-1,4-azaphosphinan-4-yl)-2-methoxyphenyl)amino)-4-(propylamino)-7H-pyrrolo[2,3-d]pyrimidine-5-carbonitrile] |
| 6.00 to 6.52 | 6.00 to 6.52 | O=C(c1ccc(Nc2nc(N[C@@H]3CCOC3)c3cc[nH]c3n2)c2c1OCCO2)N1CCOCC1 [Example 50, (R)-morpholino(8-((4-((tetrahydrofuran-3-yl)amino)-7H-pyrrolo[2,3-d]pyrimidin-2-yl)amino)-2,3-dihydrobenzo[b][1,4]dioxin-5-yl)methanone] |
| > 7.00 | > 7.00 | CCNc1nc(Nc2ccc(C(=O)N3CCOCC3)c3c2OCC3)nc2[nH]cc(C(F)(F)F)c12 [Example 437, (7-((4-(ethylamino)-5-(trifluoromethyl)-7H-pyrrolo[2,3-d]pyrimidin-2-yl)amino)-2,3-dihydrobenzo-furan-4-yl) (morpholino) methanone] |
| 6.52 to 7.00 | 6.00 to 6.52 | COc1cc(P2(=O)CCN(C3CC3)CC2)ccc1Nc1nc(NC2CCCCC2)c2c(C#N)c[nH]c2n1 [Example 323, 4-(cyclo-hexylamino)-2-((4-(1-cyclopropyl-4-oxido-1,4-azaphosphinan-4-yl)-2-methoxyphenyl)a-mino)-7H-pyrrolo[2,3-d]pyrimidine-5-carbonitrile] |
| 6.00 to 6.52 | 6.52 to 7.00 | N#Cc1c[nH]c2nc(Nc3ccc(C(=O)N4CCOCC4)c4c3OCCO4)nc(N[C@H]3CCOC3)c12 [Example 128, (S)-2-((8-(morpholine-4-carbonyl)-2,3-dihydrobenzo[b][1,4]dioxin-5-yl)amino)-4-((tetrahydrofuran-3-yl)amino)-7H-pyrrolo[2,3-d]pyrimidine-5-carbonitrile] |
| 6.00 to 6.52 | 6.00 to 6.52 | COc1cc(P2(=O)CCN(C3CC3)CC2)ccc1Nc1nc(NC2CCOCC2)c2c(C#N)c[nH]c2n1 [Example 302, 2-((4-(1-cyclopropyl-4-oxido-1,4-azaphosphinan-4-yl)-2-methoxyphenyl)a-mino)-4-((tetrahydro-2H-pyran-4-yl)amino)-7H-pyrrolo[2,3-d]pyrimidine-5-carbonitrile] |
| 6.00 to 6.52 | 6.00 to 6.52 | O=C(c1ccc(Nc2nc(N[C@H]3CCOC3)c3cc[nH]c3n2)c2c1OCCO2)N1CCOCC1 [Example 51, (S)-morpholino(8-((4-((tetrahydrofuran-3-yl)amino)-7H-pyrrolo[2,3-d]pyrimidin-2-yl)amino)-2,3-dihydrobenzo[b][1,4]dioxin-5-yl)methanone] |
| 6.00 to 6.52 | 6.00 to 6.52 | CCCCNc1nc(Nc2ccc(C(=O)N3CCOCC3)c3c2OCCO3)nc2[nH]cc(C(F)(F)F)c12 [Example 208, (8-((4-(butylamino)-5-(trifluoromethyl)-7H-pyrrolo[2,3-d]pyrimidin-2-yl)amino)-2,3-dihydrobenzo[b][1,4]dioxin-5-yl)(morpholino)methanone] |
| 6.00 to 6.52 | 6.00 to 6.52 | CC[C@H](C)Nc1nc(Nc2ccc(S(=O)(=O)N3CCC(N4CCOCC4)CC3)cc2OC)nc2[nH]ccc12 [Example 17, (S)-N^4-(sec-butyl)-N^2-(2-methoxy-4-((4-morpholinopiperidin-1-yl)sulfonyl)phenyl)-7H-pyrrolo[2,3-d]pyrimidine-2,4-diamine] |
| 6.00 to 6.52 | > 7.00 | CCCNc1nc(Nc2ccc(C(=O)N3CC(CO)(CO)C3)c3c2OCCO3)nc2[nH]cc(C#N)c12 [Example 327, 2-((8-(3,3-bis(hydroxy-methyl)azetidine-1-carbonyl)-2,3-dihydrobenzo[b] [1,4]dioxin-5-yl)amino)-4-(propylamino)-7H-pyrrolo[2,3-d]pyrimidine-5-carbonitrile] |
| 6.00 to 6.52 | 6.00 to 6.52 | COc1cc(S(=O)(=O)N2CCC(N3CCOCC3)CC2)ccc1Nc1nc(N[C@H]2CCOC2)c2cc[nH]c2n1 [Example 29, (S)-N^2-(2-methoxy-4-((4-morpholinopiperidin-1-yl)sulfonyl)phenyl)-N^4-(tetrahydrofuran-3-yl)-7H-pyrrolo[2,3-d]pyrimidine-2,4-diamine] |
